Measured values as given in patent publication US9655822B2, “Hydrated lamellar phases or liposomes which contain a fatty monoamine or a cationic polymer which promotes intracellular penetration, and a cosmetic or pharmaceutical composition containing same, as well as a method of screening such a substance” (BASF Beauty Care Solutions France S.A.S., priority 2004, dated 2017).

Tests used:
normal human fibroblasts [1] = assay: Cell viability in the screening of functionalising molecules; conditions: 1% of molecule (25 kDa PEI: 50 μM), 96-well plate
Method: 250 μl of liposomal suspension is added onto cultures of normal human fibroblasts extracted from abdominal plasy and cultivated in a 96-well plate. Each concentration is tested on 6 different wells. The cell viability is evaluated by a test with paranitrophenylphosphate which determines the intracellular alkaline phosphatase activity after three rinses with pH 7.4 phosphate buffer. The percentage of living cells is calculated with respect to a control made without the addition of liposome in the culture well (n=6).
55 molecules are firstly tested in triplicate, in comparison with the 50 μM 25 kDa PEI. The intracellular penetration is quantified after 24 hours of incubation on normal human fibroblasts cultivated in 24-well plates as described in Example 2. The cell viability is estimated in a 96-well plate with 200 μl of liposomal suspension.
The intracellular penetration and the cytotoxicity are evaluated as described in Example 2.

normal human fibroblasts [2] = assay: Screening of molecules which stimulate the intracellular penetration of PFB-F incorporated in a liposome; type: cell-based
Method: These molecules are retained in priority. The preparation of the liposomes with primary fatty monoamines of alkyl chain length of between 3 and 18 carbons and the quantification of the intracellular penetration of the fluorescent label are carried out as described in the preceding Example. […] We have thus studied the intracellular penetration of the PFB-F encapsulated in liposomes in the presence of primary fatty monoamines on the one hand, and with secondary fatty monoamines on the other hand. The preparation of the liposomes with primary or secondary fatty amines and the quantification of the intracellular penetration of the fluorescent markers are carried out as described in Example 8.

[3] = Transcutaneous permeation on human skin; conditions: 0.5% vitamin E in liposomes with 2% quaternised soya solution vs free or liposome without quaternised agent; HPLC, 5 to 24 hours
Method: The diffusion kinetics were quantified by spectrofluorimetry from 3 to 24 hours. The release was quantified after 24 additional hours. The storage was also evaluated last. The number of samples tested is 5 per condition.
The diffusion kinetics were quantified by high performance liquid chromatography from 5 to 24 hours. The release was quantified after 24 additional hours. The storage was also evaluate last.

[4] = 1% of molecule (25 kDa PEI: 50 μM), 5% soya lecithin, 0.01% PFB-F, 24 hours

Row | Molecule | Viability (normal human fibroblasts [1]) [%] | Stimulation factor (normal human fibroblasts [2]; [4]) | Stimulation factor (normal human fibroblasts [2]; by number of alkyl chains of the amine (chain length), as in Example 8) | Stimulation factor (normal human fibroblasts [2]; primary monoamine with a single alkyl fatty chain, by number of carbons, as in Example 8) | diffusion, release and storage (in words) [3]
1 | Quaternium 70 and PG | 63.9 | −0.2 | – | – | –
2 | Stearamidopropyl cetearyl dimonium tosylate and PG | 93.2 | 13.1 | – | – | –
3 | C[N+](C)(CCO)CCCNC(=O)[C@H](O)[C@@H](O)[C@H](O)[C@H](O)CO.[Cl-] [Quaternium 22] | 98.9 | 2 | – | – | –
4 | CCCCN [n-Butylamine C4, n-Butylamine] | – | 1.4 | 1.7 | 1.4 | –
5 | Quaternium 26 | 59.2 | 30.9 | – | – | –
6 | vitamin E | – | – | – | – | significantly stimulates the diffusion, the release and the storage
